From US9775859B2, “Methods and compositions for preventing and treating a disease related to glycan dysregulation” (Sinai Health System, priority 2005, dated 2017)
“Also recorded” adds a separate entry of the source.

Key:
Jurkat T-cells [1] = assay: L-PHA-FITC staining of Jurkat T cells cultured 3 days with monosaccharides, metabolites, Vitamin D3 or glycosidase inhibitors, FACS; type: cell-based, human; details: for Mgat5-modified N-glycan expression: Jurkat T; for Mgat5 N-glycans / β1,6GlcNAc-branched N-glycans expression (L-PHA staining): 3 days culture with supplement
Method: (§1) Mice used for L-PHA staining and quantitative RT-PCR were sex and age matched. […] 129/Sv mice were from an original Mgat5 gene targeted population (28). All other mice (SJL, NOD, Balb/c and B10.S) were obtained from Jackson Laboratories. […] Mouse and Jurkat cells were stained with L-PHA and LEA by first blocking with PBA (2% bovine serum albumin/0.01% azide/PBS) for 10 min at 4° C. and then incubated with 4 μg/ml of L-PHA-FITC (Vector Laboratories Inc.) or 20 μg/ml of LEA-FITC (Sigma) in PBA for 40 min at 4° C. and analyzed by a BD FACSCalihur (BD Pharmingen, San Diego, Calif.). The level of lectin binding was normalized by untreated control and calculated as a percentage (Sample intensity/control intensity-1) %.
(§2) Mice used for L-PHA staining and quantitative RT-PCR were sex and age matched. […] 129/Sv mice were from the original Mgat5 gene targeted population (28). All other mice (SJL, NOD, Balb/c and B10.S) were obtained from Jackson Laboratories. Mouse cells were stained with anti-CD4 (RM4-5), anti-CD8 (53-6.7), anti-CD45R (RA3-6B2) from eBioscience, and L-PHA (4 μg/ml) and LEA (20 μg/ml) from Sigma. […] Jurkat T-cells were cultured in either glutamine free RPMI 1640, 10% FBS, 10 mM/20 mM glucose or glucose/glutamine free DMEM base media supplemented with 10% FBS, 1.5 mM glucose. The indicated monosaccharides and/or metabolites were added daily except glucose which was added only at time zero.

Jurkat T-cells [2] = assay: LEA-FITC staining (poly-N-acetyllactosamine) of Jurkat T cells, FACS; type: cell-based, human; details: 3 days culture with supplement
Method: as §1, §2

[3] = test system: PL/J and C57/B6 T cell cultures; assay: L-PHA staining of mouse CD3+ T cells stimulated with anti-CD3, FACS; type: cell-based; details: for up-regulation of β1,6 GlcNAc branched N-glycans following stimulation: anti-CD3, minimal concentrations; for resting levels of β1,6 GlcNAc branched N-glycans: minimal concentrations
Method: as §1
Mice used for L-PHA staining and quantitative RT-PCR were sex and age matched. […] 129/Sv mice were from the original Mgat5 gene targeted population (28). All other mice (SJL, NOD, Balb/c and B10.S) were obtained from Jackson Laboratories. Mouse cells were stained with anti-CD4 (RM4-5), anti-CD8 (53-6.7), anti-CD45R (RA3-6B2) from eBioscience, and L-PHA (4 μg/ml) and LEA (20 μg/ml) from Sigma. […] The indicated monosaccharides and/or metabolites were added daily except glucose which was added only at time zero. […] The plateau or highest non-toxic dose is shown.

CHO cells [4] = assay: L-PHA and ConA lectin staining of CHO cells by FACS; type: cell-based, Chinese Hamster; details: CHO cells treated with inhibitor
Description: (§3) For comparison of N-glycan profiles of mice and human MS patients, CHO cells and CHO cells deficient at 5 different steps in the N-glycan pathway (Glucosidase I, Mannosidase I, MGAT1, Mannosidase II and MGAT5, FIG. 7A) were used to define relative L-PHA and Concanavillin A (ConA) lectin staining levels by FACS along with MALDI TOF N-glycan processing profiles. […] Indeed, a human infant with severe human glucosidase I deficiency accumulates Glc3Man (885 A ion in FIG. 16A, 21C) in the urine, a 4 hexose oligomer which derives from the Glucosidase I substrate Glc3Man9GlcNAc2 via endo-mannosidase activity (70). […] Such activity would produce Man8GlcNAc2, Man7GlcNAc2 and Man6GlcNAc2 structures and allow processing by Mannosidase I/II. Indeed, N-glycans of these 3 compositions accumulate in Glucosidase I/II inhibited cells when Mannosidase I activity is blocked with DMN (69). The larger structures Glc3Man9GlcNAc2 (mass 3008) and Glc3Man7GlcNAc2 (mass 2600) were also observed (67), however they were at lower relative intensities compared to the A ion group (FIG. 21C). […] Mixing CHO and Lec1 cells in various proportions confirmed that relative differences in expression of N-glycan structures can be determined using MALDI TOF (FIG. 21G).

CHO cells [5] = assay: MALDI-TOF mass spectroscopy N-glycan profile of CHO cells; type: cell-based, Chinese Hamster; details: CHO cells treated with inhibitor
Method: This was done as a service at the Glycotechnology core facility, a resource of the Glycobiology Research and Training Center (GRTC) at the University of California, San Diego. CD3+ murine T cells (6×10^6), resting PBMCs from human controls and MS subjects (6×10^6) and CHO cells (10×10^6) were lysed with 1% SDS in 100 mM Tris pH 7.4, dialyzed to remove SDS, digested with trypsin to generate glycopeptides and treated with PNGaseF to release the N-glycans. To focus on early processing, N-glycans were desialylated by mild acid digestion prior to permethylation and MALDI-TOF mass spectroscopy. Monoisotopic peaks in the spectra were identified using GlycanMass and GlycoMod online software, with specific targeting of the N-glycan intermediates occurring during Golgi processing.
as §3

Jurkat T-cells [6] = assay: MS/MS mass spectroscopy of sugar-nucleotide expression in Jurkat cell lysates; type: cell-based, human
Method: Jurkat cell pellets (20×10^6) were resuspended in a cold 300 μl methanol:water (1:1) solution containing maltose as internal standard, vortexed for 10 seconds, and then pipetted into tubes containing 600 μl of chloroform:methanol (C:M) (3:2). Samples were vortexed for 1 minute, and then centrifuged at 14,000 rpm for 5 minutes at 4° C. Supernatants were collected, and an equal volume of C:M (1:1) was added, followed by a second extraction. The pooled aqueous fraction containing the hydrophilic metabolites was dried with a speedvac and stored at −80° C. Prior to injection, the samples were dissolved in 100 μl methanol:water (1:1). […] The metabolites were identified by their transitions in MS/MS, and quantified using the Analyte Software (SCIEX), which measured the area under the curve for the fragment ions corresponding to each parent ion. Quantities for the given substrates are graphed as pmole/min/10^6 cells.
JurkaT-cell pellets (20×10^6) were resuspended in cold 300 μl methanol:water (1:1) solution containing maltose as an internal standard, vortexed for 10 seconds, and then pipetted into tubes containing 600 μl of chloroform:methanol (C:M) (3:2). […] The metabolites were identified by their transitions in MS/MS, and quantified using the Analyte Software (SCIEX), which measured the area under the curve for the fragment ions corresponding to each parent ion. […]

**Q.** Which “effective concentration to increase Mgat5-modified N-glycan expression, fold less than GlcNAc” value (Jurkat T-cells [1]; Jurkat T-cells, 3 days) does the source give for CC(=O)N[C@H]1C(OC(C)=O)O[C@H](COC(C)=O)[C@@H](OC(C)=O)[C@@H]1OC(C)=O (stereo partly drawn) [GlcNAc-tetra-acetate] here?
**A.** ~1000 fold

**Q.** What does the source list for N[C@H]1C(O)O[C@H](CO)[C@@H](O)[C@@H]1O (stereo partly drawn) [Glucosamine]?
**A.** Mgat5-modified N-glycan expression (Jurkat T-cells [1]; high concentrations): do the opposite; also recorded: declines; Mgat5-modified N-glycan expression (Jurkat T-cells [1]; low concentrations): increase; also recorded: works

**Q.** Which “Mgat5 N-glycans / β1,6GlcNAc-branched N-glycans expression (L-PHA staining)” value (Jurkat T-cells [1]; Jurkat T-cells) does the source give for CC(=O)CC(=O)O [acetoacetate] here?
**A.** dose dependently increased

**Q.** What about the “poly-N-acetyllactosamine expression (LEA staining)” value (“poly-N-acetyllactosamine expression” for short) (Jurkat T-cells [2]) of the same compound?
**A.** dose dependently increased

**Q.** With N [ammonia] as the compound, how does the “Mgat5 N-glycans / β1,6GlcNAc-branched N-glycans expression (L-PHA staining)” value (Jurkat T-cells [1]; Jurkat T-cells) read?
**A.** dose dependently increased

**Q.** And the “poly-N-acetyllactosamine expression” value (Jurkat T-cells [2])?
**A.** dose dependently increased

**Q.** How did the “Mgat5 glycan / β1,6GlcNAc-branched N-glycan expression after glycosidase inhibition (L-PHA)” value (Jurkat T-cells [1]; Jurkat T cells, 3 days) turn out when O[C@H]1[C@H](O)[C@@H](O)CN2CC[C@H](O)[C@H]12 [castanospermine, reference compound] was run?
**A.** dose dependent reduction; also recorded: reduced

**Q.** What about the “up-regulation of β1,6 GlcNAc branched N-glycans following stimulation” value (from here on “up-regulation”) (Jurkat T-cells [1]; Jurkat T cells, PMA/ionomycin or anti-CD3, minimal concentrations, listed as CST) of the same compound?
**A.** significantly attenuated

**Q.** What about the “resting levels of β1,6 GlcNAc branched N-glycans” value (from here on “resting levels”) (Jurkat T-cells [1]; Jurkat T cells, minimal concentrations, listed as CST) of the same compound?
**A.** without affecting; also recorded: do not affect

**Q.** And the “up-regulation” value ([3]; listed as CST)?
**A.** significantly attenuated

**Q.** And the “resting levels” value ([3]; listed as CST)?
**A.** without affecting; also recorded: do not affect

**Q.** For OC[C@H]1NC[C@@H](O)[C@@H](O)[C@@H]1O [deoxymannojirimycin], which “up-regulation” value ([3]; listed as DMN) is on record?
**A.** significantly attenuated

**Q.** What about the “resting levels” value ([3]; listed as DMN) of the same compound?
**A.** without affecting; also recorded: do not affect

**Q.** What about the “high-mannose structures as seen by ConA staining” value (CHO cells [4]) of the same compound?
**A.** increased

**Q.** And the “β1,6GlcNAc-branched N-glycan expression by L-PHA staining” value (CHO cells [4])?
**A.** dramatic reductions

**Q.** And the “MALDI TOF profile of N-glycans (accumulated structures)” value (CHO cells [5])?
**A.** dramatic increases in high mannose structures

**Q.** What about the “β1,6GlcNAc-branched tetra-antennary N-glycans (mass 2969, structure G)” value (CHO cells [5]) of the same compound?
**A.** diminished

**Q.** Which “Mgat5 N-glycans / β1,6GlcNAc-branched N-glycans expression (L-PHA staining)” value (Jurkat T-cells [1]; Jurkat T-cells) does the source give for NC(=O)CC[C@H](N)C(=O)O [glutamine] here?
**A.** dose dependently increased

**Q.** What about the “poly-N-acetyllactosamine expression” value (Jurkat T-cells [2]) of the same compound?
**A.** dose dependently increased

**Q.** With O=c1cc[nH]c(=O)[nH]1 [uracil] as the compound, how does the “effective concentration required to raise Mgat5-modified N-glycan expression, fold reduction compared to uridine” value (Jurkat T-cells [1]; Jurkat T-cells, 3 days) read?
**A.** ~100 fold

**Q.** For O=c1ccn([C@@H]2O[C@H](CO)[C@@H](O)[C@H]2O)c(=O)[nH]1 [uridine], which “Mgat5 N-glycans / β1,6GlcNAc-branched N-glycans expression (L-PHA staining)” value (Jurkat T-cells [1]; Jurkat T-cells) is on record?
**A.** dose dependently increased

**Q.** What about the “poly-N-acetyllactosamine expression” value (Jurkat T-cells [2]) of the same compound?
**A.** dose dependently increased

**Q.** And the “intracellular UDP-GlcNAc levels” value (Jurkat T-cells [6])?
**A.** dramatically raised
